We go through 4 molecules from patent US9440933B2, “Azole derivative, method for producing same, intermediate compound, and agricultural or horticultural chemical agent and industrial material protecting agent” (KUREHA CORPORATION, priority 2011, dated 2016).

For series [1], the system named is Rice bakanae disease-causing microbe (Gibberella fujikuroi). Nature of the series: Antimicrobial activity to various pathogenic microbes: G.f. To be noted: 50 mg/L.
The test system of series [2] is Barley scald-causing microbe (Rhynchosporium secalis). Kind of series: Antimicrobial activity to various pathogenic microbes: R.sec. To be noted: 50 mg/L.
In series [3] the test system is Wheat glume blotch-causing microbe (Phaeosphaeria nodorum). Kind of series: Antimicrobial activity to various pathogenic microbes: P.n. The note with it: 50 mg/L.
Description: (§1) An inventive compound was dissolved in dimethylsulfoxide 2 ml. The solution 0.6 ml was added to a PDA medium (potato-dextrose-agar medium) 60 ml at around 60° C.
(§2) A flat plate containing a test microbe (wheat leaf blight-causing microbe) cultured separately was punched into pieces with a cork borer having a diameter of 4 mm and the circular plate obtained was placed on the flat plate media containing the chemical described above. The plates were cultured at 25° C. for 14 days after inoculation and the diameter of the microbial colony was determined. Hyphal expansion-inhibiting rate was calculated according to the following equation: R=100(dc−dt)/dc (wherein, R: hyphal expansion-inhibiting rate (%), dc: diameter of microbial colony on non-treated flat plate, dt: diameter of microbial colony on chemically-treated flat plate).
(§3) In this Test Example, the antimicrobial activity of the inventive compounds to various plant disease-causing fungi and industrial material-eroding microorganisms was studied by the method described in Example 1.
(§4) The results thus obtained were evaluated in 5 stages according to the criteria below:
Wheat glume blotch-causing microbe (Phaeosphaeria nodorum) P.n
The test system of series [4] is Gray mold-causing microbe (Botrytis cinerea). Nature of the series: Antimicrobial activity to various pathogenic microbes: B.c. The note with it: 50 mg/L.
Description: as §1, §2, §3, §4
Gray mold-causing microbe (Botrytis cinerea) B.c
The test system of series [5] is Wheat eye spot-causing microbe (Pseudocercoporella herpotrichoides). Kind of series: Antimicrobial activity to various pathogenic microbes: P.h. To be noted: 50 mg/L.
Description: as §1
(§5) The plates were cultured at 25° C. for 14 days after inoculation and the diameter of the microbial colony was determined. Hyphal expansion-inhibiting rate was calculated according to the following equation: R=100(dc−dt)/dc (wherein, R: hyphal expansion-inhibiting rate (%), dc: diameter of microbial colony on non-treated flat plate, dt: diameter of microbial colony on chemically-treated flat plate).
as §4
Wheat eye spot-causing microbe (Pseudocercoporella herpotrichoides) P.h
Series [6] deals with Sclerotinia rot-causing microbe (Sclerotinia sclerotiorum). Kind of series: Antimicrobial activity to various pathogenic microbes: S.s. To be noted: 50 mg/L.
Description: as §1, §2, §4
Sclerotinia rot-causing microbe (Sclerotinia sclerotiorum) S.s
Series [7] has as its system wheat leaf rust-causing microbe. Nature of the series: Wheat leaf rust-controlling activity (foliar spray, pot test). Format: in vivo, Puccinia recondita. The note with it: Concentration 25 g/ha; wettable powder sprayed on wheat (Norin No. 61), 9 to 14 days after inoculation.
For series [8], the system named is wheat. Nature of the series: Damage to wheat (growth inhibition) by seed treatment (pot test). The note with it: 2 mg in DMSO applied to wheat seeds 1 g, 14 to 28 days after seeding, larger index = smaller damage.
Series [9] has as its system Apple alternaria blotch-causing microbe (Alternaria alternata). Kind of series: Antimicrobial activity to various pathogenic microbes: A.m. The note with it: 50 mg/L.
Description: as §1, §2, §3, §4
Apple alternaria blotch-causing microbe (Alternaria alternata) A.m
For series [10], the system named is Wheat fusarium blight-causing microbe (Fusarium graminearum). Format: cell-based. The note with it: 50 mg/L.
Series [11] has as its system Barley loose smut-causing microbe (Ustilago nuda). Nature of the series: Antimicrobial activity to various pathogenic microbes: U.n. The note with it: 50 mg/L.
Description: as §1, §5, §4
Barley loose smut-causing microbe (Ustilago nuda) U.n
The subject of series [12] is wheat leaf blight-causing microbe. Kind of series: Antimicrobial activity to wheat leaf blight-causing microbe (PDA plate, hyphal expansion inhibition). Format: cell-based, Septoria tritici. The note with it: PDA medium, 25° C., 14 days; for inhibition at 50 µg/mL / inhibition at 1.25 µg/mL: 336 h; for inhibition at 50 µg/mL: read-out: Growth inhibition; for inhibition at 1.25 µg/mL: test sample concentration 1.25 mg/L, read-out: hyphal expansion-inhibiting rate. As to the method:
In this Test Example, antimicrobial activity of the inventive compounds to wheat leaf blight-causing microbe was determined and compared with that of the comparative compound (1).

The subject of series [13] is Cucumber Fusarium wilt-causing microbe (Fusarium oxysporum). Nature of the series: Antimicrobial activity to various pathogenic microbes: F.c. To be noted: 50 mg/L.
Description: as §1, §2, §4
The test system of series [14] is Rice blast-causing microbe (Pyricularia oryzae). In kind it is cell-based. To be noted: 50 mg/L.
Series [15] has as its system wheat powdery mildew-causing microbes. Nature of the series: Controlling activity to wheat powdery mildew of seed treatment (pot test). In kind it is in vivo, Erysiphe graminis f. sp tritici. The note with it: 2 mg in DMSO applied to wheat seeds 1 g, 14 to 28 days after seeding. As to the method:
Controlling activity to wheat powdery mildew was examined in a pot test. Each of the inventive compounds […]-53, and a comparative compound (1) was weighed in an amount of 2 mg and dissolved in DMSO (18 μl). The solution thus prepared was applied to wheat seeds 1 g in a vial, 8 wheat seeds were seeded in a 80 cm^2 pot. The wheat was grown, as water was supplied from blow, in a greenhouse where wheat powdery mildew-causing microbes are present abundantly. The incidence rate was determined and the controlling rate and additionally the controlling index calculated 14 to 28 days after seeding. The controlling rate was calculated and the wheat powdery mildew controlling index determined according to the following equation: Controlling rate=(1-Incidence rate in treated region/Incidence rate in non-treated region)×100(%) [table]

The structures appear in SMILES notation.

Consider `COC(=O)[C@]1(C)CC[C@H](Cc2ccc(F)cc2)[C@@]1(O)Cn1cncn1` (racemic) [Compound I-53, methyl-(1RS, 2SR,3RS)-3-(4-fluorobenzyl)-2-hydroxy-1-methyl-2-(1H-1,2,4-triazol-1-ylmethyl)cyclopentanecarboxylate], for which the “Growth inhibition (hyphal expansion-inhibiting rate grade) G.f” value in [1] was 5 (hyphal expansion-inhibiting rate: 80% or more). For the same molecule, in series [2], the “Growth inhibition (hyphal expansion-inhibiting rate grade) R.sec” value is 5 (hyphal expansion-inhibiting rate: 80% or more). Moreover, the “Growth inhibition (hyphal expansion-inhibiting rate grade) P.n” value in [3] is given as 5 (hyphal expansion-inhibiting rate: 80% or more). In addition, the “Growth inhibition (hyphal expansion-inhibiting rate grade) B.c” value in series [4] is 5 (hyphal expansion-inhibiting rate: 80% or more). In series [5], the “Growth inhibition (hyphal expansion-inhibiting rate grade) P.h” value is 5 (hyphal expansion-inhibiting rate: 80% or more). The “Growth inhibition (hyphal expansion-inhibiting rate grade) S.s” value in [6] is given as 5 (hyphal expansion-inhibiting rate: 80% or more). Moreover, the Controlling index in series [7] is 5 (81 to 100). In addition, in series [8], the “Damage index Growth inhibition” value is 1 (60% or more and less than 80%). Besides, the “Growth inhibition (hyphal expansion-inhibiting rate grade) A.m” value in series [9] is 5 (hyphal expansion-inhibiting rate: 80% or more). The “Growth inhibition (hyphal expansion-inhibiting rate grade) F.g” value in series [10] is 5 (hyphal expansion-inhibiting rate: 80% or more). For the same molecule, the “Growth inhibition (hyphal expansion-inhibiting rate grade) U.n” value in [11] is reported as 5 (hyphal expansion-inhibiting rate: 80% or more). The inhibition at 50 µg/mL in series [12] (Concentration 50 mg/L) was > 80%. The inhibition at 1.25 µg/mL in series [12] is ≥ 80%. Moreover, in [13], the “Growth inhibition (hyphal expansion-inhibiting rate grade) F.c” value was 5 (hyphal expansion-inhibiting rate: 80% or more). Moreover, in series [14], the “Growth inhibition (hyphal expansion-inhibiting rate grade) P.o” value is recorded as 5 (hyphal expansion-inhibiting rate: 80% or more). For the same molecule, the “Controlling index Wheat powdery mildew” value in series [15] is given as 5 (Controlling rate: 40 or more).
As to `C#CCOC(=O)[C@]1(C)CC[C@@H](Cc2ccc(Cl)cc2)[C@]1(O)Cn1cncn1` (racemic) [Compound I-5, 2-propynyl-(1RS,2RS,3SR)-3-(4-chlorobenzyl)-2-hydroxy-1-methyl-2-(1H-1,2,4-triazol-1-ylmethyl)cyclopentanecarboxylate], the “Growth inhibition (hyphal expansion-inhibiting rate grade) G.f” value in series [1] was 5 (hyphal expansion-inhibiting rate: 80% or more). Moreover, the “Growth inhibition (hyphal expansion-inhibiting rate grade) R.sec” value in series [2] was 5 (hyphal expansion-inhibiting rate: 80% or more). Further, the “Growth inhibition (hyphal expansion-inhibiting rate grade) P.n” value in series [3] is listed as 5 (hyphal expansion-inhibiting rate: 80% or more). Moreover, the “Growth inhibition (hyphal expansion-inhibiting rate grade) B.c” value in series [4] is listed as 5 (hyphal expansion-inhibiting rate: 80% or more). Besides, the “Growth inhibition (hyphal expansion-inhibiting rate grade) P.h” value in series [5] is 5 (hyphal expansion-inhibiting rate: 80% or more). In series [6], the “Growth inhibition (hyphal expansion-inhibiting rate grade) S.s” value is given as 5 (hyphal expansion-inhibiting rate: 80% or more). The Controlling index in series [7] is reported as 5 (81 to 100). Moreover, the “Damage index Growth inhibition” value in series [8] was 1 (60% or more and less than 80%). In addition, the “Growth inhibition (hyphal expansion-inhibiting rate grade) A.m” value in series [9] is 5 (hyphal expansion-inhibiting rate: 80% or more). Moreover, the “Growth inhibition (hyphal expansion-inhibiting rate grade) F.g” value in [10] was 5 (hyphal expansion-inhibiting rate: 80% or more). Moreover, the “Growth inhibition (hyphal expansion-inhibiting rate grade) U.n” value in series [11] is given as 5 (hyphal expansion-inhibiting rate: 80% or more). Besides, the Growth inhibition in series [12] (Concentration 50 mg/L) is reported as 5 (hyphal expansion-inhibiting rate: 80% or more). Also, the “Growth inhibition (hyphal expansion-inhibiting rate grade) F.c” value in [13] was 5 (hyphal expansion-inhibiting rate: 80% or more). Besides, in series [14], the “Growth inhibition (hyphal expansion-inhibiting rate grade) P.o” value is recorded as 5 (hyphal expansion-inhibiting rate: 80% or more). For the same molecule, the “Controlling index Wheat powdery mildew” value in series [15] is listed as 5 (Controlling rate: 40 or more).
`COC(=O)[C@]1(C)CC[C@H](Cc2ccc(Cl)cc2)[C@@]1(O)Cn1cncn1` (racemic) [Compound I-132, methyl-(1RS,2SR,3RS)-3-(4-chlorobenzyl)-2-hydroxy-1-methyl-2-(1H-1,2,4-triazol-1-ylmethyl)cyclopentanecarboxylate]: the “Growth inhibition (hyphal expansion-inhibiting rate grade) G.f” value in [1] is 5 (hyphal expansion-inhibiting rate: 80% or more). In addition, the “Growth inhibition (hyphal expansion-inhibiting rate grade) R.sec” value in [2] is on record as 5 (hyphal expansion-inhibiting rate: 80% or more). Besides, the “Growth inhibition (hyphal expansion-inhibiting rate grade) P.n” value in series [3] is 5 (hyphal expansion-inhibiting rate: 80% or more). For the same molecule, the “Growth inhibition (hyphal expansion-inhibiting rate grade) B.c” value in [4] is reported as 5 (hyphal expansion-inhibiting rate: 80% or more). Moreover, the “Growth inhibition (hyphal expansion-inhibiting rate grade) P.h” value in series [5] is given as 5 (hyphal expansion-inhibiting rate: 80% or more). The “Growth inhibition (hyphal expansion-inhibiting rate grade) S.s” value in [6] is 5 (hyphal expansion-inhibiting rate: 80% or more). The Controlling index in series [7] is recorded as 5 (81 to 100). Besides, in series [8], the “Damage index Growth inhibition” value is 5. In series [9], the “Growth inhibition (hyphal expansion-inhibiting rate grade) A.m” value is 5 (hyphal expansion-inhibiting rate: 80% or more). In addition, the “Growth inhibition (hyphal expansion-inhibiting rate grade) F.g” value in series [10] is 5 (hyphal expansion-inhibiting rate: 80% or more). For the same molecule, in series [11], the “Growth inhibition (hyphal expansion-inhibiting rate grade) U.n” value is reported as 5 (hyphal expansion-inhibiting rate: 80% or more). In addition, the inhibition at 50 µg/mL in series [12] (Concentration 50 mg/L) is > 80%. The “Growth inhibition (hyphal expansion-inhibiting rate grade) F.c” value in [13] is recorded as 5 (hyphal expansion-inhibiting rate: 80% or more). Besides, the “Growth inhibition (hyphal expansion-inhibiting rate grade) P.o” value in [14] is 5 (hyphal expansion-inhibiting rate: 80% or more). For the same molecule, the “Controlling index Wheat powdery mildew” value in series [15] is 5 (Controlling rate: 40 or more).
In the case of `CCOC(=O)[C@]1(C)CC[C@@H](Cc2ccc(Cl)cc2)[C@]1(O)Cn1cncn1` (racemic) [Compound I-3, ethyl-(1RS,2RS,3SR)-3-(4-chlorobenzyl)-2-hydroxy-1-methyl-2-(1H-1,2,4-triazol-1-ylmethyl)cyclopentanecarboxylate], in series [1], the “Growth inhibition (hyphal expansion-inhibiting rate grade) G.f” value was 5 (hyphal expansion-inhibiting rate: 80% or more). The “Growth inhibition (hyphal expansion-inhibiting rate grade) R.sec” value in [2] is listed as 5 (hyphal expansion-inhibiting rate: 80% or more). The “Growth inhibition (hyphal expansion-inhibiting rate grade) P.n” value in series [3] was 5 (hyphal expansion-inhibiting rate: 80% or more). Also, the “Growth inhibition (hyphal expansion-inhibiting rate grade) B.c” value in series [4] is reported as 5 (hyphal expansion-inhibiting rate: 80% or more). Also, the “Growth inhibition (hyphal expansion-inhibiting rate grade) P.h” value in [5] is 5 (hyphal expansion-inhibiting rate: 80% or more). The “Growth inhibition (hyphal expansion-inhibiting rate grade) S.s” value in series [6] is 5 (hyphal expansion-inhibiting rate: 80% or more). In [7], the Controlling index is given as 5 (81 to 100). Besides, the “Damage index Growth inhibition” value in series [8] was 1 (60% or more and less than 80%). For the same molecule, in series [9], the “Growth inhibition (hyphal expansion-inhibiting rate grade) A.m” value was 5 (hyphal expansion-inhibiting rate: 80% or more). Besides, the “Growth inhibition (hyphal expansion-inhibiting rate grade) F.g” value in [10] is listed as 5 (hyphal expansion-inhibiting rate: 80% or more). Besides, the “Growth inhibition (hyphal expansion-inhibiting rate grade) U.n” value in series [11] is 5 (hyphal expansion-inhibiting rate: 80% or more). In [12] (Concentration 50 mg/L), the inhibition at 50 µg/mL was > 80%. Besides, the inhibition at 1.25 µg/mL in series [12] was ≥ 80%. Moreover, the “Growth inhibition (hyphal expansion-inhibiting rate grade) F.c” value in [13] is 5 (hyphal expansion-inhibiting rate: 80% or more). For the same molecule, in [14], the “Growth inhibition (hyphal expansion-inhibiting rate grade) P.o” value is given as 5 (hyphal expansion-inhibiting rate: 80% or more). Moreover, the “Controlling index Wheat powdery mildew” value in series [15] is on record as 5 (Controlling rate: 40 or more).
